Laboratory results published in patent US6441027B1, “Method of regulating the female reproductive system through angiogenesis inhibitors” (Children's Medical Center Corporation, priority 1996, dated 2002).

How the values were obtained:
[1] = test system: decidual stromal cells; assay: PCNA staining of decidua on E6; assay type: in vivo, mouse
Method: To test this hypothesis, mice were treated with AGM-1470 on E1 and sacrificed at E6, a time point prior to placental formation. The uteri of the mice were examined by antibodies to Factor VIII and PCNA to determine if there was any difference in the degree of endometrial angiogenesis or the proliferative response of the decidua induced by trophoblast invasion. However, in the decidua there was a 50% decrease in the proliferation of stromal cells in the AGM-1470 treated mice as compared to control (PCNA staining/X630 field in control was 48%±3, n=4, versus 24%±5, n=4, P≦0.005 in AGM-1470 treated mice. See FIG. 4A and 4B). […]
To determine the rate of cellular proliferation, staining for proliferating cell nuclear antigen (PCNA) was performed. […] Positive staining was detected by using horse radish peroxidase-conjugated secondary (Dako) and tertiary (Dako) antibodies, and DAB as a chromagen. The PCNA labeling index was determined by counting the percentage of stained cells under light microscopy within selected 630× fields. A minimum of 1,000 cells were counted for each specimen.
In experiments with AGM-1470 treatment of pregnant mice, transverse sections through embryos contained within the uterus were stained. Microvessels density was determined at the intersite endometrium and PCNA was determined in the decidual stroma. […]

[2] = test system: inseminated mice; assay: Number of implantation sites after single dose pre-implantation; assay type: in vivo, mouse; conditions: 30 mg/kg on E1, n=16
Method: The same procedures were followed as described above in Example 2 to administer 30 mg/kg AGM-1470 in single doses on the specified days. The mice were sacrificed and the number of implantation cites were counted. There was no decrease in the number of implantation cites when AGM-1470 was given on E1 [control mice had 8±0.2 implants (n=29), mice injected with AGM-1470 on E1 had 9±0.4 implants (n=16)].

[3] = test system: VEGF induced neovascularization; assay: Mouse corneal micropocket model, VEGF pellet; assay type: in vivo; conditions: mouse cornea, n=10/group, p<0.001
Method: To confirm that angiogenesis was being inhibited, AGM-1470 was tested in vivo. A mouse corneal micropocket model was used which was recently developed to model tumor angiogenesis. Pellets of bFGF or VEGF were implanted in the mouse cornea resulting in aggressive neovascularization. AGM-1470 inhibited the amount of bFGF or VEGF induced neovascularization by 47% or 62% respectively (n=10/group p<0.001).

[4] = test system: plugged mice; assay: Reversibility: remating after fetal resorption; assay type: in vivo, mouse; conditions: 30 mg/kg on E1 (n=3) or E7 (n=3), remated six weeks after E18 laparotomy
Method: To establish long-term safety, the course of recovery of the reproductive system after fetal resorption was studied. Six plugged mice were injected with 30 mg/kg AGM-1470 on E1 (n=3) or E7 (n=3) and then anesthetized on E18 in a methoxyflurane (Pittman-Moore, Mandelein, Ill.) chamber so that a laparotomy could be performed. The uteri were inspected to confirm the presence of resorption cites. The incisions were closed with a running 3-0 ethelon™ black monofilament nylon suture (Ethicon, Somerville; N.J.). Animals were observed until fully recovered. After an additional six weeks the mice were remated to determine their ability to become inseminated and deliver a normal litter. […] Therefore, there is a functional recovery of the uterus after AGM-1470 treatment on E1 or E7.

[5] = test system: inseminated mice; assay: Inseminated mice, single low dose 3 mg/kg; assay type: in vivo, mouse
Method: The same protocol was followed as was performed for AGM-1470 30 mg/kg except mice were injected with only 3 mg/kg AGM-1470 on E1 or E7. The 10-fold lower dose was tested to determine if a dose in which the fetuses come to term would produce birth defects. Mice were sacrificed at E18 and fetal viability, number of implantation cites, crown-rump length, and tail length were assessed.

[6] = test system: non-pregnant cycling mice; assay: Cycling mice, chronic treatment: estrous cycle and mating; assay type: in vivo, mouse
Excerpt: Female mice were housed individually in cages and acclimated for one week. The stage of the estrous cycles was checked by visual inspection of the vagina according to the criteria of Champlin^28 and the examiner was blinded to the treatment group. Determining the stage of the estrous cycle in the mouse by the appearance of the vagina. Animals were monitored daily and graded for color, size of opening, striations and swelling. Based on these observations each individual was assigned to a cycle stage (diestrus, proestrus, estrus, or metestrus).
Mice were randomized and received either AGM-1470 30 mg/kg s.c. or saline 0.1 ml s.c. every other day for 16 days (approximately four estrous cycles). On the last of four days of treatment mice were housed with male mice to see if successful mating and conception would occur. On day 16 mice were weighed and sacrificed by cervical dislocation. The ovaries were resected enbloc, fixed in Carnoy's fixative, and embedded in paraffin according to standard histologic techniques. Sections were cut at 6 microns and stained with hematoxylin and eosin.

CO[C@@H]1[C@H](OC(=O)NC(=O)CCl)CC[C@]2(CO2)[C@H]1[C@@]1(C)O[C@@H]1CC=C(C)C [AGM-1470, O-chloroacetylcarbamoyl fumagillol]
decrease in proliferation of decidual stromal cells vs control ([1]; treated on E1, sacrificed E6): 50%
PCNA staining/X630 field in decidua ([1]; treated on E1, sacrificed E6, n=4): 24%±5
number of implantation sites [2]: 9±0.4 implants
inhibition of VEGF induced neovascularization [3]: 62%
litters after remating [4]: normal litters in all mice
reduction of crown-rump length on E18 relative to control ([5]; 3 mg/kg on E1): 36%
reduction of tail length relative to control ([5]; 3 mg/kg on E1): 43%
fetal viability at E18 ([5]; 3 mg/kg on E1 (n=21 fetuses) or E7 (n=8 fetuses)): viable
crown-rump length on E18 ([5]; 3 mg/kg on E1, n=7 embryos): 13.0±0.1 mm
birth defects ([5]; 3 mg/kg on E1 or E7, fetuses at E18): no birth defects
reduction of crown-rump length on E18 relative to control ([5]; 3 mg/kg on E7): 19%
reduction of tail length relative to control ([5]; 3 mg/kg on E7): 12%
crown-rump length on E18 ([5]; 3 mg/kg on E7, n=7 embryos): 16.5±0.5 mm
tail length on E18 ([5]; 3 mg/kg on E7, n=7 embryos): 10.0±0.1 mm
first occurrence of abnormal (closed, red, dry) vaginal morphology ([6]; 30 mg/kg s.c. every other day): 5.6±3.2 days of treatment
mice with new vaginal morphology within 10 days of start of treatment ([6]; 30 mg/kg s.c. every other day): 8 of 8
effect on estrous cycle ([6]; 30 mg/kg s.c. every other day for 16 days): interruption of the normal estrous cycle
time to full recovery after drug was discontinued ([6]; chronic high dose, sexually mature cycling mice): 7 weeks
successful mating (plugging) ([6]; housed with males on last four days of 16 day treatment): no visually evident plugging
